Measured values reported in article PMC8185074, “Anchor extension: a structure-guided approach to design cyclic peptides targeting enzyme active sites” (Nature Communications, 2021).
Peptide text beside a SMILES is read from it.

Legend:
Assay type in all cases: biochemical
HDAC2 = biological target: T1, HDAC2 (Homo sapiens, UniProt Q92769); assay: HDAC2 inhibition, full IC50 measurement (Reaction Biology; fluorogenic p53 peptide RHKK(Ac)AMC)
T1 construct: purchased Reaction Biology Corporation (assay run by the CRO)
T1 sequence (Q92769 whole entry): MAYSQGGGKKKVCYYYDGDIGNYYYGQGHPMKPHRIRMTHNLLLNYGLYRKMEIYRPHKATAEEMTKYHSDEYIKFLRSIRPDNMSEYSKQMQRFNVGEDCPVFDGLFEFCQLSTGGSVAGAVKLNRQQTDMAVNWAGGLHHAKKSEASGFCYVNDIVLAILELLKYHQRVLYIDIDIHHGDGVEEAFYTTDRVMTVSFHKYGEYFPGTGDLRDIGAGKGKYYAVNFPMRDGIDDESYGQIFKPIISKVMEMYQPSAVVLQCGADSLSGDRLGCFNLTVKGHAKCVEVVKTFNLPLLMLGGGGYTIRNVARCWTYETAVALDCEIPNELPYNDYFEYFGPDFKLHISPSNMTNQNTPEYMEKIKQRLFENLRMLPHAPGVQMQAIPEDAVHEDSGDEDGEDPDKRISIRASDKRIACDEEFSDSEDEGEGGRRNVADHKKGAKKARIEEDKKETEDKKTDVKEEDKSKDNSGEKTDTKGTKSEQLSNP
Outline: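 Test peptides were dispensed acoustically with enzyme in 50 mM Tris-HCl pH 8.0, 137 mM NaCl, 2.7 mM KCl, 1 mM MgCl2, 1 mg/ml BSA and 1% DMSO. After adding 50 μM RHKK(Ac)AMC, reactions ran 1 h at 30 °C, then developer was added.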

HDAC1 = biological target: T2, HDAC1 (Homo sapiens, UniProt Q13547); assay: HDAC1 inhibition, full IC50 measurement (Reaction Biology; fluorogenic p53 peptide RHKK(Ac)AMC); conditions: t1/t2 replicates
T2 construct: purchased Reaction Biology Corporation (assay run by the CRO)
T2 sequence (Q13547 whole entry): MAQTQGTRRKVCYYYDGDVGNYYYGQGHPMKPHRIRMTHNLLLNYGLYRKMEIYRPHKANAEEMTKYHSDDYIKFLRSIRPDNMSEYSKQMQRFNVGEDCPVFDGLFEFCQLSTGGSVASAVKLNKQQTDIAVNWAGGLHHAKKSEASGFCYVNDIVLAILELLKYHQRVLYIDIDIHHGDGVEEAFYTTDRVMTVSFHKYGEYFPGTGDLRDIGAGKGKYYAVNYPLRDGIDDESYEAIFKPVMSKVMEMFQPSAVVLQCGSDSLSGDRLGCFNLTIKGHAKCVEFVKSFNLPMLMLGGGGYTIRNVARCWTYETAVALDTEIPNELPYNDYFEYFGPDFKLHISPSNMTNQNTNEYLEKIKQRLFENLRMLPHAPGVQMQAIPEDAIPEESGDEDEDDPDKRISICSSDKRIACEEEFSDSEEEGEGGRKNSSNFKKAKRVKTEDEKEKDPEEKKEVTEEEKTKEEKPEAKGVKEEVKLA
Description: (§1) The assay was performed using 50 μM fluorogenic peptide from p53 residues 379-382 [RHKK(Ac)AMC] in a base reaction buffer of 50 mM Tris-HCl at pH 8.0, 137 mM NaCl, 2.7 mM KCl, 1 mM MgCl2, and freshly added 1 mg/ml BSA and 1% DMSO. Peptides were first dissolved in DMSO and then added to the reaction mixture with the enzyme using acoustic technique, enough to reach the desired concentration for that assay point. Peptide concentrations were calculated based on mass of lyophilized peptide and its molecular weight. The substrate was then added and incubated for 1 hour at 30 °C in a sealed container. After the incubation, developer was added to stop the reaction and develop color. Kinetic measurements were then performed for 20 min with Envision with 5 min intervals (Ex/Em = 360/460 nm). The endpoint after plateau was taken for IC50 measurement.
(§2) In cases where duplicate measures are used, average data is reported in the main text or Supplementary Tables.

HDAC8 = biological target: T3, HDAC8 (Homo sapiens, UniProt Q9BY41); assay: HDAC8 inhibition, full IC50 measurement (Reaction Biology; fluorogenic p53 peptide RHKK(Ac)AMC); conditions: t1/t2 replicates
T3 construct: purchased Reaction Biology Corporation (assay run by the CRO)
T3 sequence (Q9BY41 1-377): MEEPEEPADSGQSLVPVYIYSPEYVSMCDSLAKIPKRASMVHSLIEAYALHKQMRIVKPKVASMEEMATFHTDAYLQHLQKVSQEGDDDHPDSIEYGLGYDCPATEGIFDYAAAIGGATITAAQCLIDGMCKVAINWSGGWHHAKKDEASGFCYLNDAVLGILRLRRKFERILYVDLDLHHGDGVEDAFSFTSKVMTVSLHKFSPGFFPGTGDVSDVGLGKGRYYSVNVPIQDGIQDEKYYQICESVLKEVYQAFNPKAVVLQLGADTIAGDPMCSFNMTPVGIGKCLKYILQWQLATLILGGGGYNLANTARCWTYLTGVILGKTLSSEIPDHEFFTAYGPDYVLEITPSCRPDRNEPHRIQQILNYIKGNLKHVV
Description: as §1, §2

[1] = peptide conc. 1.00E-05 M, listed as des2.1.0_t1
[2] = peptide conc. 1.00E-05 M, listed as des2.1.0_t2
[3] = peptide conc. 1.11E-06 M, listed as des2.1.0_t1
[4] = peptide conc. 1.11E-06 M, listed as des2.1.0_t2
[5] = peptide conc. 1.23E-07 M, listed as des2.1.0_t1
[6] = peptide conc. 1.23E-07 M, listed as des2.1.0_t2
[7] = peptide conc. 1.37E-08 M, listed as des2.1.0_t1
[8] = peptide conc. 1.37E-08 M, listed as des2.1.0_t2
[9] = peptide conc. 1.52E-09 M, listed as des2.1.0_t1
[10] = peptide conc. 1.52E-09 M, listed as des2.1.0_t2
[11] = peptide conc. 3.33E-06 M, listed as des2.1.0_t1
[12] = peptide conc. 3.33E-06 M, listed as des2.1.0_t2
[13] = peptide conc. 3.70E-07 M, listed as des2.1.0_t1
[14] = peptide conc. 3.70E-07 M, listed as des2.1.0_t2
[15] = peptide conc. 4.12E-08 M, listed as des2.1.0_t1
[16] = peptide conc. 4.12E-08 M, listed as des2.1.0_t2
[17] = peptide conc. 4.57E-09 M, listed as des2.1.0_t1
[18] = peptide conc. 4.57E-09 M, listed as des2.1.0_t2
[19] = peptide conc. 5.08E-10 M, listed as des2.1.0_t1
[20] = peptide conc. 5.08E-10 M, listed as des2.1.0_t2

C[C@H](O)[C@H]1NC(=O)[C@H](Cc2c[nH]c3ccccc23)NC(=O)[C@H](CCCCCS)NC(=O)[C@H](CCCCN)NC(=O)[C@@H](CC(=O)O)NC(=O)[C@@H](CCCCN)NC(=O)[C@@H](CO)NC(=O)[C@H](CC(N)=O)NC(=O)[C@H](CC(=O)O)NC1=O [des2.1.0, SHA-Trp-dThr-Asp-Asn-dSer-dLys-dAsp-Lys] (HELM PEPTIDE1{D.N.[dS].[dK].[dD].K.[O=C([C@H](CCCCCS)N[*:1])[*:2]].W.[dT]}$PEPTIDE1,PEPTIDE1,1:R1-9:R2$$$V2.0)
HDAC2 activity raw data (signal) (HDAC2; Conc. 1.00E-05 M, t1): 8775 | HDAC2 activity raw data (signal) (HDAC2; Conc. 1.00E-05 M, t2): 5752 | HDAC2 activity raw data (signal) (HDAC2; Conc. 1.11E-06 M, t1): 59204 | HDAC2 activity raw data (signal) (HDAC2; Conc. 1.11E-06 M, t2): 55653 | HDAC2 activity raw data (signal) (HDAC2; Conc. 1.23E-07 M, t1): 287500 | HDAC2 activity raw data (signal) (HDAC2; Conc. 1.23E-07 M, t2): 296559 | HDAC2 activity raw data (signal) (HDAC2; Conc. 1.37E-08 M, t1): 771007 | HDAC2 activity raw data (signal) (HDAC2; Conc. 1.37E-08 M, t2): 731853 | HDAC2 activity raw data (signal) (HDAC2; Conc. 1.52E-09 M, t1): 900838 | HDAC2 activity raw data (signal) (HDAC2; Conc. 1.52E-09 M, t2): 951179 | HDAC2 activity raw data (signal) (HDAC2; Conc. 3.33E-06 M, t1): 26370 | HDAC2 activity raw data (signal) (HDAC2; Conc. 3.33E-06 M, t2): 19470 | HDAC2 activity raw data (signal) (HDAC2; Conc. 3.70E-07 M, t1): 153888 | HDAC2 activity raw data (signal) (HDAC2; Conc. 3.70E-07 M, t2): 158440 | HDAC2 activity raw data (signal) (HDAC2; Conc. 4.12E-08 M, t1): 557731 | HDAC2 activity raw data (signal) (HDAC2; Conc. 4.12E-08 M, t2): 531503 | HDAC2 activity raw data (signal) (HDAC2; Conc. 4.57E-09 M, t1): 870100 | HDAC2 activity raw data (signal) (HDAC2; Conc. 4.57E-09 M, t2): 861014 | HDAC2 activity raw data (signal) (HDAC2; Conc. 5.08E-10 M, t1): 1022928 | HDAC2 activity raw data (signal) (HDAC2; Conc. 5.08E-10 M, t2): 990162 | IC50 (HDAC2; figure legends, Supp. Table 1, read-out: HDAC2 IC50): 49.3 nM | HDAC1 activity raw data (signal) (HDAC1; [1]): 2361 | HDAC1 activity raw data (signal) (HDAC1; [2]): -1067 | HDAC1 activity raw data (signal) (HDAC1; [3]): 35066 | HDAC1 activity raw data (signal) (HDAC1; [4]): 30452 | HDAC1 activity raw data (signal) (HDAC1; [5]): 229823 | HDAC1 activity raw data (signal) (HDAC1; [6]): 221730 | HDAC1 activity raw data (signal) (HDAC1; [7]): 719453 | HDAC1 activity raw data (signal) (HDAC1; [8]): 647364 | HDAC1 activity raw data (signal) (HDAC1; [9]): 1054522 | HDAC1 activity raw data (signal) (HDAC1; [10]): 936834 | HDAC1 activity raw data (signal) (HDAC1; [11]): 10147 | HDAC1 activity raw data (signal) (HDAC1; [12]): 8024 | HDAC1 activity raw data (signal) (HDAC1; [13]): 106445 | HDAC1 activity raw data (signal) (HDAC1; [14]): 96156 | HDAC1 activity raw data (signal) (HDAC1; [15]): 447049 | HDAC1 activity raw data (signal) (HDAC1; [16]): 424224 | HDAC1 activity raw data (signal) (HDAC1; [17]): 905513 | HDAC1 activity raw data (signal) (HDAC1; [18]): 862794 | HDAC1 activity raw data (signal) (HDAC1; [19]): 1056262 | HDAC1 activity raw data (signal) (HDAC1; [20]): 1080293 | HDAC8 activity raw data (signal) (HDAC8; [1]): 3317278 | HDAC8 activity raw data (signal) (HDAC8; [2]): 3225773 | HDAC8 activity raw data (signal) (HDAC8; [3]): 14350924 | HDAC8 activity raw data (signal) (HDAC8; [4]): 13274280 | HDAC8 activity raw data (signal) (HDAC8; [5]): 29733699 | HDAC8 activity raw data (signal) (HDAC8; [6]): 29791882 | HDAC8 activity raw data (signal) (HDAC8; [7]): 39649362 | HDAC8 activity raw data (signal) (HDAC8; [8]): 39639123 | HDAC8 activity raw data (signal) (HDAC8; [9]): 48372865 | HDAC8 activity raw data (signal) (HDAC8; [10]): 43623554 | HDAC8 activity raw data (signal) (HDAC8; [11]): 8085277 | HDAC8 activity raw data (signal) (HDAC8; [12]): 7910023 | HDAC8 activity raw data (signal) (HDAC8; [13]): 24973470 | HDAC8 activity raw data (signal) (HDAC8; [14]): 23110500 | HDAC8 activity raw data (signal) (HDAC8; [15]): 39179752 | HDAC8 activity raw data (signal) (HDAC8; [16]): 38239026 | HDAC8 activity raw data (signal) (HDAC8; [17]): 45086009 | HDAC8 activity raw data (signal) (HDAC8; [18]): 40240975 | HDAC8 activity raw data (signal) (HDAC8; [19]): 46468325 | HDAC8 activity raw data (signal) (HDAC8; [20]): 43451568
